pEC50, pIC50: −log10 of the molar value. Read-outs that look alike come from different tables or passages of the source. Peptide text beside a SMILES is read from it.
Columns and labels:
Format in all cases: cell-based
GPR1 = molecular target: T1, GPR1 (Homo sapiens, UniProt P46091); test: PathHunter β-Arrestin assay, GPR1, agonist and antagonist mode; conditions: for agonist activity, in words / Rank Order / % Max Activity / % Max Inhibition / antagonist activity, in words: GPR1; for agonist activity, in words: FIG. 2A/2B; for Rank Order: agonist; for % Max Activity: agonist mode; for % Max Inhibition: antagonist mode, chemerin at EC80; for antagonist activity, in words: chemerin at 80% maximum signal
T1 construct: host or cells: CHO
T1 sequence (P46091 1-355): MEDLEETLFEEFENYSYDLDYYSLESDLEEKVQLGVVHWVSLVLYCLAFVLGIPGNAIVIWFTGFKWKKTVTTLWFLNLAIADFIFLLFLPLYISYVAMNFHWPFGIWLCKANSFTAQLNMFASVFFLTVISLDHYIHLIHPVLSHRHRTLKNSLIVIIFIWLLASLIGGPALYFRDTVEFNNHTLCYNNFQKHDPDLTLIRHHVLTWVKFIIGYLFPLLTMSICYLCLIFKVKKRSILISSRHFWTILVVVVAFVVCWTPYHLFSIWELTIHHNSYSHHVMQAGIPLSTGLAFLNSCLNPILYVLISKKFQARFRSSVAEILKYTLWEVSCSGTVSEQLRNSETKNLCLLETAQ
Description: (§1) The DiscoveRx PathHunter™ eXpress GPCR activity assay was employed to test agonist and antagonist activities of the chemerin peptides against the GPCRs ChemR23 and GPR1. Two assay formats were tested, the PathHunter β-Arrestin assay and the Hit Hunter cAMP Hunter assay.
(§2) The PathHunter β-Arrestin assay monitors the activation of a GPCR in a homogenous, non-imaging assay format using a technology developed by DiscoveRx called complementation, which utilizes an enzyme fragment complementation (EFC) assay with β-galactosidase (β-Gal) as the functional reporter. The enzyme is split into two complementary portions expressed as fusion proteins in the cell. The Enzyme Acceptor (EA) is fused to β-Arrestin and the ProLink donor peptide is fused to the GPCR of interest. Upon GPCR stimulation, β-Arrestin is recruited to the receptor for desensitization, bringing the two fragments of β-Gal together and allowing complementation to occur.
(§3) The assay involves CHO cell lines that express 1) a GPCR of interest (e.g. ChemR23 or GPR1) that has a fragment of the βgal enzyme fused to the C-terminus of the receptor and 2) a β-arrestin fused to the main β-gal enzyme. When the agonist binds to the receptor, β-arrestin is recruited to the receptor and the β-gal enzyme is complemented by the fragment from the GPCR thus forming a functional β-gal enzyme. A substrate is then added and luminescence is generated to detect β-arrestin recruitment.
(§4) The protocol used was a standard protocol employed by DiscoveRx PathHunter™ profiling service. […] Once it was established that the cells were healthy and growing normally, cells were passaged from flasks using cell dissociation reagent and seeded into white walled clear bottom 384-well microplates for compound profiling. For profiling, cells were seeded at a density of 5000 cells per well in a total volume of 20 μL and were allowed to adhere and recover overnight prior to compound addition.
(§5) For the agonist assay, intermediate dilution of compound stocks were generated such that 5 μL of 5× compound could be added to each well with a final DMSO concentration of 1% of total volume. For profiling compound in agonist mode, the cells were incubated in the presence of compound at 37° C. for 90 minutes.
(§6) For the antagonist assay, agonist dose curves were performed the morning of profiling to determine the EC80 value for the following antagonist testing with compounds. 5 μL of 5× agonist (i.e. chemerin) was added to each well with an equal concentration of vehicle present. EC80 agonist concentration was determined directly from agonist dose curve. For antagonist determination, cells were preincubated with antagonist followed by agonist challenge at the EC80 concentration: 4. 5 μL of 5× compound added to cells and incubated at 37° C. for 30 minutes. 5. 5 μL of 6× EC80 agonist added to cells and incubated at 37° C. for 90 minutes.
(§7) Microplates were read following signal generation with a PerkinElmer Envision™ instrument for chemiluminescent signal detection
(§8) Dose curves in the presence and absence of compound were plotted using GraphPad Prism or Activity Base. For agonist mode assays, percentage activity was calculated using the following formula: % Activity=100%×(Mean RLU of test sample−mean RLU of vehicle control)/(mean MAX RLU control ligand−mean RLU of vehicle control)). For antagonist mode assays, percentage inhibition was calculated using the following formula: % Inhibition=100%×(1−(Mean RLU of test sample−mean RLU of vehicle control)/(mean RLU of EC80 control−mean RLU of vehicle control)).

ChemR23 (CMKLR1) = molecular target: T2, ChemR23 (CMKLR1) (Homo sapiens, UniProt Q99788); test: PathHunter β-Arrestin assay, ChemR23 (CMKLR1), agonist and antagonist mode; conditions: for Rank Order / % Max Activity / % Max Inhibition: ChemR23; for Rank Order: agonist; for % Max Activity: agonist mode; for % Max Inhibition: antagonist mode, chemerin at EC80; for agonist activity, in words / antagonist activity, in words: human ChemR23; for agonist activity, in words: FIG. 2A/2B; for antagonist activity, in words: chemerin at 80% maximum signal
T2 construct: host or cells: CHO
T2 sequence (Q99788 1-373): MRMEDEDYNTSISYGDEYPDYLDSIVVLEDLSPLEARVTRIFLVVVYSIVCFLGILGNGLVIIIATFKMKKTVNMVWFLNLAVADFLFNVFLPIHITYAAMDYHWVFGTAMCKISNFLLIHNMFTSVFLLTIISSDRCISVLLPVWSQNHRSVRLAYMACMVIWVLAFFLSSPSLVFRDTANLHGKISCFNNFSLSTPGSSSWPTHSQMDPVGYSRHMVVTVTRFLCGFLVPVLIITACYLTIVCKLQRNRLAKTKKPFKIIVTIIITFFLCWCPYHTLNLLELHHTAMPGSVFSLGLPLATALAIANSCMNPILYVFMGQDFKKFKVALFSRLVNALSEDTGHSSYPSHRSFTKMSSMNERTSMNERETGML
Description: as §1, §2, §3, §4, §5, §6, §7, §8

mChemR23 = molecular target: T3, mChemR23 (Mus musculus, UniProt P97468); test: PathHunter β-Arrestin assay, mouse ChemR23
T3 construct: host or cells: CHO (stated generally for the PathHunter assay)
T3 sequence (P97468 1-371): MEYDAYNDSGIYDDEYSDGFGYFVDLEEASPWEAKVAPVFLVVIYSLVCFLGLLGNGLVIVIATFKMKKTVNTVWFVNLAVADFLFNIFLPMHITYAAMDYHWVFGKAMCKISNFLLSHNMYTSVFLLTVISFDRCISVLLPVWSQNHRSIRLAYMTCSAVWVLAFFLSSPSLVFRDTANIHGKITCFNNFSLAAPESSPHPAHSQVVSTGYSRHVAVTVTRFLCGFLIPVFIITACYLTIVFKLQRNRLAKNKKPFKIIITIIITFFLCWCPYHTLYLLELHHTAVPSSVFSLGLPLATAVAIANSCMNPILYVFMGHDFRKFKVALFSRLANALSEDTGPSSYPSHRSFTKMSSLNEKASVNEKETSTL
Description: as §1, §2, §3, §4, §5
as §6, with “5 μL of 6× EC80 agonist added to cells and incubated at 37° C. for 90 minutes.” left out
as §7, §8

Compound | pIC50 (GPR1) | agonist activity, in words (GPR1) | Rank Order (GPR1) | % Max Activity (GPR1) [%] | % Max Inhibition (GPR1) [%] | antagonist activity, in words (GPR1) | pEC50 (ChemR23 (CMKLR1)) | pIC50 (ChemR23 (CMKLR1)) | Rank Order (ChemR23 (CMKLR1)) | % Max Activity (ChemR23 (CMKLR1)) [%] | % Max Inhibition (ChemR23 (CMKLR1)) [%] | agonist activity, in words (ChemR23 (CMKLR1)) | antagonist activity, in words (ChemR23 (CMKLR1)) | pEC50 (mChemR23) | pIC50 (mChemR23) | EC50 (ChemR23 (CMKLR1); read-out: RC50 (uM), EC50, Arrestin, Agonist, AssayTarget ChemR23) [µM]
C[C@H](N)C(=O)NCC(=O)N[C@@H](CCC(=O)O)C(=O)N[C@@H](CC(=O)O)C(=O)N1CCC[C@H]1C(=O)N[C@@H](Cc1c[nH]cn1)C(=O)N[C@@H](CO)C(=O)N[C@@H](Cc1ccccc1)C(=O)N[C@@H](Cc1ccc(O)cc1)C(=O)N[C@@H](Cc1ccccc1)C(=O)N1CCC[C@H]1C(=O)NCC(=O)N[C@@H](CCC(N)=O)C(=O)N[C@@H](Cc1ccccc1)C(=O)N[C@@H](C)C(=O)O [C15 (human)] (H-AGEDPHSFYFPGQFA-OH; N-terminus and C-terminus assumed) | < 5.00 | neither human nor mouse chemerin C15 peptides acted as agonists | 3 | 10.6 | 0 | neither human nor mouse chemerin C15 peptides acted as antagonists | < 5.00 | < 5.00 | 3 | 0.8 | 0 | neither human nor mouse chemerin C15 peptides acted as agonists | neither human nor mouse chemerin C15 peptides acted as antagonists | < 5.00 |  | 
C[C@H](N)C(=O)NCC(=O)N[C@@H](CCC(=O)O)C(=O)N[C@@H](CC(=O)O)C(=O)N1CCC[C@H]1C(=O)N[C@@H](Cc1c[nH]cn1)C(=O)N[C@@H](CO)C(=O)N[C@@H](Cc1ccccc1)C(=O)N[C@@H](Cc1ccc(O)cc1)C(=O)N[C@@H](Cc1ccccc1)C(=O)N1CCC[C@H]1C(=O)NCC(=O)N[C@@H](CCC(N)=O)C(=O)N[C@@H](Cc1ccccc1)C(=O)N[C@@H](C)C(=O)N[C@@H](Cc1ccccc1)C(=O)N[C@@H](CO)C(=O)O [C17 (human)] (H-AGEDPHSFYFPGQFAFS-OH; N-terminus and C-terminus assumed) | < 5.00 | exhibited agonist activity | 1 | 80.9 | 0 |  |  | < 5.00 | 2 | 67.5 | 0 | exhibited agonist activity |  |  | < 5.00 | 
CC(C)C[C@H](NC(=O)[C@H](Cc1ccccc1)NC(=O)[C@H](Cc1ccc(O)cc1)NC(=O)CNC(=O)[C@H](Cc1c[nH]cn1)NC(=O)[C@@H]1CCCN1C(=O)[C@H](CC(=O)O)NC(=O)[C@H](CCC(=O)O)NC(=O)CNC(=O)[C@H](C)N)C(=O)N1CCC[C@H]1C(=O)NCC(=O)N[C@@H](CCC(N)=O)C(=O)N[C@@H](Cc1ccccc1)C(=O)N[C@@H](C)C(=O)O [mC15] (H-AGEDPHGYFLPGQFA-OH; N-terminus and C-terminus assumed) | < 5.00 | neither human nor mouse chemerin C15 peptides acted as agonists | 4 | 27.8 | 0 | neither human nor mouse chemerin C15 peptides acted as antagonists | < 5.00 | < 5.00 | 3 | 0.4 | 0 | neither human nor mouse chemerin C15 peptides acted as agonists | neither human nor mouse chemerin C15 peptides acted as antagonists |  | < 5.00 | > 10
